Patent publication US12479847B2 (DANA-FARBER CANCER INSTITUTE, INC., priority 2019, dated 2025)

Tests used:
Assay in all cases: KINOMEscan (ScanMAX) kinase profiling
Assay type in all cases: binding
[1] = target: T1, panel of 468 kinases (Homo sapiens, UniProt Q00535); settings: CDK5; 1 μM; read-out: % control
T1 construct: purchased KINOMEscan (ScanMAX) service

[2] = target: T2, panel of 468 kinases (Homo sapiens, UniProt P43405); settings: SYK; 1 μM; read-out: % control
T2 construct: purchased KINOMEscan (ScanMAX) service

[3] = target: T3, panel of 468 kinases (Homo sapiens, UniProt P24723); settings: PRKCH; 1 μM; read-out: % control
T3 construct: purchased KINOMEscan (ScanMAX) service
T3 sequence (P24723 whole entry): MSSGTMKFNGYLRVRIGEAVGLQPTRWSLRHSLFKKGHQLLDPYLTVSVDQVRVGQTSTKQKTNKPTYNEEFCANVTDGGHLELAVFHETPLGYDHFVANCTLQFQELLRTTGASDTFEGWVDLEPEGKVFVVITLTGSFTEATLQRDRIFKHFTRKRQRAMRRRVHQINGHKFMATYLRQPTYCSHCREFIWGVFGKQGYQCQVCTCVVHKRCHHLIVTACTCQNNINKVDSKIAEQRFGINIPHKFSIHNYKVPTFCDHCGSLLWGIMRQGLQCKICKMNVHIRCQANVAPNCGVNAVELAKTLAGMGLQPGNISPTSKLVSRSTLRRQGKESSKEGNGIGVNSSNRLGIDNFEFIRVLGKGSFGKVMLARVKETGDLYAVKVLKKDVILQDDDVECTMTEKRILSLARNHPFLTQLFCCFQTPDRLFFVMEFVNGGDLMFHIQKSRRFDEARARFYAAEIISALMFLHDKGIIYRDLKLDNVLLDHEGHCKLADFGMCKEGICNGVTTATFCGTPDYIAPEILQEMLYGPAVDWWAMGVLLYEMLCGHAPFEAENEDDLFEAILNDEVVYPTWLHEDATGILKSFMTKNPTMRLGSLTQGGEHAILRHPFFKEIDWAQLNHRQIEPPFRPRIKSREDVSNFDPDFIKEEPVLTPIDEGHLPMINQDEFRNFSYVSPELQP

[4] = target: T4, panel of 468 kinases (Homo sapiens, UniProt Q9UEW8); settings: STK39; 1 μM; read-out: % control
T4 construct: purchased KINOMEscan (ScanMAX) service

[5] = target: T5, panel of 468 kinases (Homo sapiens, UniProt Q16816); settings: PHKG1; 1 μM; read-out: % control
T5 construct: purchased KINOMEscan (ScanMAX) service
T5 sequence (Q16816 whole entry): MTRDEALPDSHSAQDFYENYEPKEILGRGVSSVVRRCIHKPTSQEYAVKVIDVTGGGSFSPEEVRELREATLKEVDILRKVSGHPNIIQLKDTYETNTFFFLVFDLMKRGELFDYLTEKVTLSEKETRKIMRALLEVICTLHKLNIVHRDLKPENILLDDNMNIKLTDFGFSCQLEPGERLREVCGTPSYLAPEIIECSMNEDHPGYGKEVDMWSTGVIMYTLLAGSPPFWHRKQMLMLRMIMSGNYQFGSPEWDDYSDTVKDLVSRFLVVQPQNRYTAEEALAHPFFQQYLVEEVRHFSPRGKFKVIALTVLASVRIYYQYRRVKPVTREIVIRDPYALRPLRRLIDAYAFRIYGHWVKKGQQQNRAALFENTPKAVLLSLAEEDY

[6] = target: T6, panel of 468 kinases (Homo sapiens, UniProt Q13554); settings: CAMK2B; 1 μM; read-out: % control
T6 construct: purchased KINOMEscan (ScanMAX) service
T6 sequence (Q13554 whole entry): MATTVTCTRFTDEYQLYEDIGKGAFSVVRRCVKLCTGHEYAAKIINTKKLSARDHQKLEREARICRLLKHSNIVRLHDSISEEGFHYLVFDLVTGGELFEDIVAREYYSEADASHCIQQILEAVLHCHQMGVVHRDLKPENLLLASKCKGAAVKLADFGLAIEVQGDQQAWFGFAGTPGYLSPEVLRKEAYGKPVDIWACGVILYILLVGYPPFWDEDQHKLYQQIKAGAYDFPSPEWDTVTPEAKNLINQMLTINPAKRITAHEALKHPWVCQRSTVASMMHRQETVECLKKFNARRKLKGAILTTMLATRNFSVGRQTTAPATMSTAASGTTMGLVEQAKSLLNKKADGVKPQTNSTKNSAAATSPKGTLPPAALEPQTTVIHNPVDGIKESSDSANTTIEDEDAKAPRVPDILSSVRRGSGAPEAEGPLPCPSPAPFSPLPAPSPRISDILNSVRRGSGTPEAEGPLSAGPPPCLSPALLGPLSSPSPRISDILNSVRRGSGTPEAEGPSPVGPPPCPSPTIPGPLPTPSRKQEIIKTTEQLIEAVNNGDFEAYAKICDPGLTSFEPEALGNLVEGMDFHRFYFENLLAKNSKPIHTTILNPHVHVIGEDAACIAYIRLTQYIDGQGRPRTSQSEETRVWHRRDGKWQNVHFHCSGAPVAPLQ

[7] = target: T7, panel of 468 kinases (Homo sapiens, UniProt Q6DT37); settings: DMPK2; 1 μM; read-out: % control
T7 construct: purchased KINOMEscan (ScanMAX) service
T7 sequence (Q6DT37 whole entry): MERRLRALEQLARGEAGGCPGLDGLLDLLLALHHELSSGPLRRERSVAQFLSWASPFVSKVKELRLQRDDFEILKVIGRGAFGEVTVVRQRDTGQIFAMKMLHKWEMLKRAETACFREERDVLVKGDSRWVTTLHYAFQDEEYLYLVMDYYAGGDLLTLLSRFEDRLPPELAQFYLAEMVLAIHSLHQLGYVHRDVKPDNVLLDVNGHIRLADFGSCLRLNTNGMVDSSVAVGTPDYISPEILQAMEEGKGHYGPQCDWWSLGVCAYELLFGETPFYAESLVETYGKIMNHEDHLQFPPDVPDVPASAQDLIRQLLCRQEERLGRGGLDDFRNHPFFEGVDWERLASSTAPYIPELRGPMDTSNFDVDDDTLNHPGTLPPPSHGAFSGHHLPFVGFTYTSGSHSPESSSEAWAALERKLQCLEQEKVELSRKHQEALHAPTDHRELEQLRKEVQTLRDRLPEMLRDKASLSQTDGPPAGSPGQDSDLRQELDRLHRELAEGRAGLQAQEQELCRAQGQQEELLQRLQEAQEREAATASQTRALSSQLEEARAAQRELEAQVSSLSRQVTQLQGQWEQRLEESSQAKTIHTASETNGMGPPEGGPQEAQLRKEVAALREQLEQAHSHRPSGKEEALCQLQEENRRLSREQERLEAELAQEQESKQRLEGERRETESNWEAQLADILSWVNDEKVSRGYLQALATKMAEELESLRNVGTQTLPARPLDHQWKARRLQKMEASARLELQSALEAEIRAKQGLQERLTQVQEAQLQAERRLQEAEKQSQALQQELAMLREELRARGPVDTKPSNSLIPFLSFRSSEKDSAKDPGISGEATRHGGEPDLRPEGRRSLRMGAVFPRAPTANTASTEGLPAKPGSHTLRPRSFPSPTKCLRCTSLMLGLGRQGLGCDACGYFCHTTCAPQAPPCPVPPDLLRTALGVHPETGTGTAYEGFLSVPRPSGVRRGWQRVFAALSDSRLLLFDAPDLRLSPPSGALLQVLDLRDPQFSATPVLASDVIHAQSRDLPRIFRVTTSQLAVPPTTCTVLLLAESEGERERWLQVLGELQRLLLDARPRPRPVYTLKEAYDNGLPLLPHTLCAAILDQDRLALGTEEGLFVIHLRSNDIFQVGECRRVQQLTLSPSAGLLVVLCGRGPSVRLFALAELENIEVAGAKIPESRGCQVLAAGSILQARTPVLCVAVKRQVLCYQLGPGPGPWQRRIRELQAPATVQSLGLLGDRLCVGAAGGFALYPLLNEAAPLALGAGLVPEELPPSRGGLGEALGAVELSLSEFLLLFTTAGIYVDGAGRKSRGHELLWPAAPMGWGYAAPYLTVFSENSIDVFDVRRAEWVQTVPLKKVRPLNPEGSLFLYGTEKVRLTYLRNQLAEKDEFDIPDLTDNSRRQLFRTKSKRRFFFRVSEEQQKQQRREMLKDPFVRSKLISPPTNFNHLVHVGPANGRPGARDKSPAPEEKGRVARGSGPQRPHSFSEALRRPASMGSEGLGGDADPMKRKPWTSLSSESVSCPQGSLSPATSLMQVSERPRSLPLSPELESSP

[8] = target: T8, panel of 468 kinases (Homo sapiens, UniProt O14920); settings: IKK-beta; 1 μM; read-out: % control
T8 construct: purchased KINOMEscan (ScanMAX) service
T8 sequence (O14920 1-756): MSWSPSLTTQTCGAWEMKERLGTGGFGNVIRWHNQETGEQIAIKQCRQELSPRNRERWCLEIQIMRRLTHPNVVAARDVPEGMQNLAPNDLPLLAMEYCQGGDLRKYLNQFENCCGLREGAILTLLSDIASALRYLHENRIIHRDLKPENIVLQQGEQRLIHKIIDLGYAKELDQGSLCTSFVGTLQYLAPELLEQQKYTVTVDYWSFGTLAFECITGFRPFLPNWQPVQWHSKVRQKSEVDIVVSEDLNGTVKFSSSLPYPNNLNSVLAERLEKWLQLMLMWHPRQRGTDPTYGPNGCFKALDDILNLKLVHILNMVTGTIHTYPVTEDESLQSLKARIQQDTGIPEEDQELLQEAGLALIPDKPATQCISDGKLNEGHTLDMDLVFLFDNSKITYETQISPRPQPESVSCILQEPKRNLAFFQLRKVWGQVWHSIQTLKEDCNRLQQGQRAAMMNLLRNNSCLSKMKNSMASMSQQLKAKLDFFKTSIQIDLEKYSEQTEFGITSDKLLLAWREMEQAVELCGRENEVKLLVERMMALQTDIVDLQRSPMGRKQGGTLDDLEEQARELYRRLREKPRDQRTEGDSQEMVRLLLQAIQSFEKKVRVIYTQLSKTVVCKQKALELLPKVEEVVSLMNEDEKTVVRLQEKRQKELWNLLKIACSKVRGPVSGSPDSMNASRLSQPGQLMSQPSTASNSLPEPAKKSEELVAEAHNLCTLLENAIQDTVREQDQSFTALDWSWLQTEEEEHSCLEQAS

[9] = target: T9, panel of 468 kinases (Homo sapiens, UniProt P49674); settings: CSNK1E; 1 μM; read-out: % control
T9 construct: purchased KINOMEscan (ScanMAX) service
T9 sequence (P49674 whole entry): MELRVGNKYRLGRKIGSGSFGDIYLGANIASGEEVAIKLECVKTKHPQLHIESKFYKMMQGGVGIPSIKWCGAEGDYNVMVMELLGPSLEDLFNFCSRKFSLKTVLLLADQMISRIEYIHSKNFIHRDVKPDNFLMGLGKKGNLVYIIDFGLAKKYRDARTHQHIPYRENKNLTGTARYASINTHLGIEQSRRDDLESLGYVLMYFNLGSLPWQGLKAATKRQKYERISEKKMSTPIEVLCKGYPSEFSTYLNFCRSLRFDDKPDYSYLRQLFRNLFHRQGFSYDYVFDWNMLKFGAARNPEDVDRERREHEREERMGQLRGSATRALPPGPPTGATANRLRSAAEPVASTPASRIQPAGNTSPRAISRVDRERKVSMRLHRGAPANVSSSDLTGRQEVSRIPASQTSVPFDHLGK

[10] = target: T10, panel of 468 kinases (Homo sapiens, UniProt Q8IVH8); settings: MAP4K3; 1 μM; read-out: % control
T10 construct: purchased KINOMEscan (ScanMAX) service
T10 sequence (Q8IVH8 1-894): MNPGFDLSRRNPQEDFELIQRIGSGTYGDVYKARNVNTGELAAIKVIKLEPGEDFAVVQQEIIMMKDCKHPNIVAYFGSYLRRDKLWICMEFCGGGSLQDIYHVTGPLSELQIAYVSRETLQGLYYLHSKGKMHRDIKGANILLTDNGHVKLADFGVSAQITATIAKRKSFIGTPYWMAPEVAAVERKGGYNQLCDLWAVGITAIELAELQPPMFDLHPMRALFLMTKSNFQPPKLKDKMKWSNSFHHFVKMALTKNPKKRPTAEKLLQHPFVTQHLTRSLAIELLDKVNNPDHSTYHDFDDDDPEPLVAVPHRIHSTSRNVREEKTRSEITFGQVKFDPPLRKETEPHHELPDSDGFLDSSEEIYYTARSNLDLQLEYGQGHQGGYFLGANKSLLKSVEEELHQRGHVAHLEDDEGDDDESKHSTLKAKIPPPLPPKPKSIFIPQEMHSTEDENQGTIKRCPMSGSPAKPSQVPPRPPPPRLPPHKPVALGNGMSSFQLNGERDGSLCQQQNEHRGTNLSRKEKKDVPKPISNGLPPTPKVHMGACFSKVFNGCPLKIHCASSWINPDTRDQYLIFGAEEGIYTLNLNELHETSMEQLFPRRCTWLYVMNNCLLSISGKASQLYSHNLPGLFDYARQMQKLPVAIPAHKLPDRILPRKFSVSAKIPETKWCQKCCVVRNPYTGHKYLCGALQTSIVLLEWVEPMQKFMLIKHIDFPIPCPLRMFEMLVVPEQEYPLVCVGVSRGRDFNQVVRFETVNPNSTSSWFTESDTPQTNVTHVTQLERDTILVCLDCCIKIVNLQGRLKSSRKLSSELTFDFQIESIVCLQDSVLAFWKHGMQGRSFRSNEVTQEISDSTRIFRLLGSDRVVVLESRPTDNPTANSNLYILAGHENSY

T1 sequence (Q00535 whole entry): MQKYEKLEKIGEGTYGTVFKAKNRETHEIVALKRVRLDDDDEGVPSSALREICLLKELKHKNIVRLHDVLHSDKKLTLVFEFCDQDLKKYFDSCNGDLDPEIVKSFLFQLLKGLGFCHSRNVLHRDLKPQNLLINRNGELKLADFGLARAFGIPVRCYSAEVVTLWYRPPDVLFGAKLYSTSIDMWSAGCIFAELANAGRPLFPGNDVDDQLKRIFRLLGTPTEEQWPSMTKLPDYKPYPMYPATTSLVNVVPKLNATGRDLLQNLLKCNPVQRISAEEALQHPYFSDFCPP

SMILES	remaining binding at 1 µM [1]	remaining binding at 1 µM [2]	remaining binding at 1 µM [3]	remaining binding at 1 µM [4]	remaining binding at 1 µM [5]	remaining binding at 1 µM [6]	remaining binding at 1 µM [7]	remaining binding at 1 µM [8]	remaining binding at 1 µM [9]	remaining binding at 1 µM [10]
CNc1nc(Nc2ccc(S(=O)(=O)N3CCC(N4CCOCC4)CC3)cc2OC)nc2[nH]cc(Cl)c12 [Compound 12, 5-chloro-N2-(2-methoxy-4-((4-morpholinopiperidin-1-yl)sulfonyl)phenyl)-N4-methyl-7H-pyrrolo[2,3-d]pyrimidine-2,4-diamine]	100%	55%	97%	4.8%	25%	100%	100%	100%	18%	98%
CNc1nc(Nc2ccc(C(=O)N3CCC(N4CCOCC4)CC3)c3c2OCO3)nc2[nH]cc(Cl)c12 [Compound 75, (7-((5-chloro-4-(methylamino)-7H-pyrrolo[2,3-d]pyrimidin-2-yl)amino)benzo[d][1,3]dioxol-4-yl)(4-morpholinopiperidin-1-yl)methanone]	100%	35%	91%	5.4%	14%	94%	100%	96%	30%	81%
CNc1nc(Nc2ccc(P3(=O)CCN(C4CCOCC4)CC3)cc2OC)nc2[nH]cc(Cl)c12 [Compound 77, 4-(4-((5-chloro-4-(methylamino)-7H-pyrrolo[2,3-d]pyrimidin-2-yl)amino)-3-methoxyphenyl)-1-(tetrahydro-2H-pyran-4-yl)-1,4-azaphosphinane 4-oxide]	100%	43%	100%	0.5%	8.4%	92%	94%	95%	15%	100%
